Experimental data published in patent publication US6384193B1, “Agents for the regulation of oestrogen synthesis” (Imperial College of Science Technology and Medicine, priority 1996, dated 2002).

Key:
[1] = system: IL-6 plus IL-6sR stimulated aromatase activity; assay: IL-6 plus IL-6sR stimulated aromatase activity in fibroblasts derived from normal breast tissue; assay type: cell-based; details: Arohib 125 μM added 3 h prior to IL-6 50 ng/ml + IL-6sR 100 ng/ml, serum-free medium
Description: Aromatase activity was assessed in primary cultures of stromal fibroblasts derived from sub-cutaneous adipose tissue. Cells were grown until 80% confluent when they were washed with Earle's balanced salt solution (5 ml) and cultured for 24 h in phenol red-free, serum-free Eagle's minimum essential medium. Experimental media were then added in the presence of dexamethasone (100 nmol/l), IL-6 (50 ng/ml, Bachem, Cambridge, U.K.), or IL-6 plus IL-6sR (250 ng/ml, R & D System Europe Ltd., Abingdon, U.K.) and incubated for a further 48 h.
Aromatase activity was assayed in intact fibroblast monolayers by measuring the production of hu 3H2O from [1β-^3H] androstenedione (15-30 Ci/mmol, NEN-DuPont, Stevenage, U.K.) over a 20 h period (Newton et al., 1986). Aromatase activity measured under these conditions was linear with respect to time for up to 20 h (Macdiarmid et al., 1994). Cell number was determined by counting cell nuclei using a Coulter counter.
To examine the ability of Arohib to block the interaction of IL-6sR with gp130, fibroblasts were derived from normal breast tissue and cultured in growth medium containing fetal calf serum. When cells were 80% confluent, this medium was removed and replaced with serum-free medium. Cells were then treated as shown below with the results illustrated in FIG. 2.

aromatase activity = details: IL-6 stimulated fibroblasts derived from sub-cutaneous adipose tissue; Singh et al. 1995; cited from earlier work
[2] = system: MCF-7 breast cancer cells; details: MCF-7 cells, Singh et al. 1995, cited from earlier work

Row | Compound | effect on IL-6sR release [2] | further results
1 | YRLRFELRYRAERSKT (PEPTIDE (1)..(16) sequence of a synthetic peptide corresponding to the regulatory site residues 249-264 of interleukin-6 receptor (IL-6R)) [Arohib, 16 amino acid peptide based upon part of the IL-6R external domain] |  | reduction in the ability of IL-6/IL-6sR to stimulate aromatase activity [1]: 67%
2 | IL-6: cytokine interleukin-6 |  | aromatase activity (in words) (aromatase activity): Significant arbmatase activity was detectable
3 | C[C@]12CC[C@@H]3c4ccc(O)cc4CC[C@H]3[C@@H]1CC[C@@H]2O [Oestradiol, oestradiol] | markedly increased | 
4 | TNFα | markedly increased | 
5 | 4-hydroxytamoxifen [4-OHT] | small stimulatory effect | effect on oestradiol-induced increase of IL-6sR release ([2]; with oestradiol): blocked the ability of oestradiol to increase IL-6sR release
